The test system of test [1] is murine ASMC (WT, CD36 null, CD47 null). The experiment in a line: Intracellular cGMP in murine ASMC. Format: cell-based, mouse. Summed up: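 Aortic smooth muscle cells from wild-type C57Bl/6, CD36-null or CD47-null mice, passage 1–4, plated overnight in full growth medium. Weaned to SM-GM + 0.1% BSA before treatment with NO donor and other agents. Intracellular cGMP measured by enzyme immunoassay.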

The test system of a further test is VASP. As to the kind of experiment: Phospho-Ser239 VASP Western blotting in platelets. The class given is cell-based, human. The note with it: 8Br-cGMP 100 μM, TSP1 2.2 nM. Here is the method: Washed human platelets (resuspended in Tyrode's buffer to 3×10^8 platelets/mL to a final volume of 0.5 mL) were incubated at 37° C. for 30 minutes before treatment. TSP1 was added 15 minutes prior to treatment. Immediately following treatment, platelets were pelleted at 13,000×g at 4° C. for 15 seconds and resuspended in 1 mL of a lysis buffer containing 10 mM Tris-HCl (pH 7.5), 150 mM NaCl, 1 mM EDTA, 1 mM Na3VO4, 40 mM NaF, 1 μg/mL aprotinin, 1 μg/mL leupeptin, 1 mM phenylmethysulfonylfluoride and 1% […]. This suspension was placed at 4° C. with gentle agitation for 5 minutes before centrifugation at 13000×g for 5 minutes at 4° C. 5 μg lysates were electrophoresed on 4-12% Bis-Tris NuPAGE gels, transferred to Immobilon PVDF membranes and probed with a rabbit polyclonal antiserum against Serine 239-phosphorylated VASP (Santa Cruz Biotechnology, Santa Cruz, Calif.).
(In general: A western blot detects proteins with antibodies after separation by electrophoresis.)

As for “TSP1: thrombospondin-1 prepared from human platelets”, the “NO-stimulated cGMP” value in test [1] (CD36 null MASMC) is given as “completely inhibited”; in test [1] (CD47 null MASMC), “did not significantly inhibit”; in test [1] (WT MASMC), “inhibited”. The “VASP phosphorylation at Ser239” value in the test on VASP is “inhibited”.

The values are drawn from patent publication US8865672B2, “Prevention of tissue ischemia and related methods” (The United States of America, as represented by the …, priority 2006, dated 2014).
